Reference: paper PMC3071374, “High Throughput Screens Yield Small Molecule Inhibitors of Leishmania CRK3:CYC6 Cyclin-Dependent Kinase” (PLoS Neglected Tropical Diseases, 2011)
Like-named read-outs stand apart in the source and are kept apart here.

Legend:
[1] = biological target: Leishmania CRK3:CYC6 (Leishmania major, UniProt O96526); assay type: biochemical
Method: (§1) Leishmania CRK3:CYC6 protein kinase assays were performed in 96-well microtiter plates in a final volume of 25 µl. Each assay point contained 7.5 ng of co-expressed histidine-tagged CRK3:CYC6 protein kinase complex (hereafter referred to as CRK3:CYC6) diluted in enzyme dilution buffer (EDB) (20 mM Tris-HCl pH 7.2, 0.5 mg ml^−1 BSA, 2.5% glycerol and 0.006% Brij-35). Assays were performed using the assay development buffer (ADB) (20 mM MOPS, pH 7.0, 25 mM β-glycerophosphate, 5 mM EGTA, 1 mM NaVO3, 1 mM DTT and 15 mM MgCl2) supplemented with 100 µM ATP, 0.5 µCi of γ-^32P ATP per reaction and histone H1 as a substrate used at 0.4 mg ml^−1. Two and three-fold titrations were set up to determine the concentration of enzyme to be used per assay point (7.5 ng) and to determine the concentrations of selected inhibitors required for 50% inhibition of Leishmania CRK3:CYC6 protein kinase activity (IC50 values), respectively. For IC50 determinations, assay mixes contained DMSO to a final concentration of 2%. Mammalian protein kinase assays were carried out according to the assay protocols developed at Cyclacel. Assays were carried out for 30 minutes at 30°C before stopping the reaction by the addition of an equal volume (25 µl) of 75 mM orthophosphoric acid. Samples were spotted onto a p81 cellulose filterplate (Nunc) and a vacuum applied. Wells were washed 3×200 µl with 75 mM phosphoric acid and the bottom of the plate sealed. 50 µl of Microscint 40 (Perkin Elmer) was added per well before incorporation of radioactivity was determined on a Topcount microplate scintillation counter.

[2] = biological target: CDK4:CYCD1 (Homo sapiens, UniProt P11802); assay: Mammalian protein kinase assay, CDK4:CYCD1; assay type: biochemical; conditions: Lexicon azapurine HTS hits
Sequence of CDK4:CYCD1 (P11802 whole entry): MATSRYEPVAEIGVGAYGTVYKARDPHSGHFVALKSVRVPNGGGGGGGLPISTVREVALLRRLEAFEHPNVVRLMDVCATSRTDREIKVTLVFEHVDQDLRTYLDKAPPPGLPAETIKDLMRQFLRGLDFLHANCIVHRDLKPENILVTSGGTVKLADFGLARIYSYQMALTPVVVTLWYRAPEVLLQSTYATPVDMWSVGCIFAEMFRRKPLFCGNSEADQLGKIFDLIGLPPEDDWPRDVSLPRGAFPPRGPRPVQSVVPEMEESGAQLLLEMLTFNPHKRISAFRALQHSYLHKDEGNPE
Sequence of CDK4:CYCD1 (P24385 whole entry partner): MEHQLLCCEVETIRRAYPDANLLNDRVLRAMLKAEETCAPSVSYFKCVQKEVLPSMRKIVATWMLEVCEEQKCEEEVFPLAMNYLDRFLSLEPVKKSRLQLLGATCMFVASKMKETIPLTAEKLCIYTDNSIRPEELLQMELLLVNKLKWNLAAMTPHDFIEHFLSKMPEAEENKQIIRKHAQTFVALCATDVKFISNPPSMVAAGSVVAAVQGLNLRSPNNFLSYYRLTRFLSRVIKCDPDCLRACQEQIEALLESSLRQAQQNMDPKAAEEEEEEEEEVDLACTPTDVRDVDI
Method: as §1

[3] = test system: WT promastigote L. major; assay: L. major promastigote growth inhibition assay (resazurin); assay type: cell-based; conditions: for IC50: 5 days at 25°C, read-out: IC50 against WT promastigote L. major; for inhibition of parasite growth in culture (in words): promastigotes and intra-macrophage amastigotes in culture
Method: L. major wild type promastigotes (Friedlin strain: WHO designation MHOM/JL/81/Friedlin) were grown at 25°C in HOMEM medium (Invitrogen cat no. 041-94699111) supplemented with 10% (v/v) heat inactivated foetal calf serum (HIFCS) and 1% (v/v) penicillin/streptomycin antibiotics.
CRK3 inhibitors were diluted into HOMEM medium supplemented with 10% HIFCS at twice the final screening concentration. Five-fold or ten-fold serial dilutions were carried out into HOMEM medium supplemented with 10% HIFCS. 100 µl of each drug concentration were added to a 96 well plate in duplicate. 100 µl of five-fold or ten-fold serial dilutions of 1 mM Pentamidine (Sigma) and an equivalent volume of 100% DMSO were included as positive and negative controls, in duplicate, respectively. L. major promastigote cells were diluted to a cell density of 2×10^6 cells ml^−1 in HOMEM media supplemented with 10% HIFCS and 100 µl added to all wells in 96 well plates. Plates were sealed with parafilm and incubated for 5 days at 25°C. After 5 days, 20 µl of filter sterile resazurin solution (12.5 mg resazurin salt in 100 ml PBS) (Sigma) was added to each of the wells and the plate incubated for a further 24 hours at 25°C. Fluorescence was measured using an Envision plate reader (Perkin Elmer) at 540 nm excitation wavelength and 590 nm emission wavelength.

[4] = test system: WT amastigote L. major; assay: Intra-macrophage L. major amastigote assay; assay type: cell-based; conditions: for IC50 / activity against amastigotes (in words): infected peritoneal macrophages; for IC50: read-out: IC50 against WT amastigote L. major
Method: Macrophages were harvested from the peritoneum of Balb/C mice, centrifuged at 1000× g for 10 minutes at 4°C and resuspended in fresh RPMI 1640 media supplemented with 10% HIFCS and 1% (v/v) Gentamicin, as described previously. Macrophages were diluted to a cell density of 5×10^5 cells ml^-1 in RPMI supplemented with 10% HIFCS and 100 μl were added to each well of a 16-well Lab-tek cavity slide (50,000 mφ/well) and incubated at 37°C, 5% CO2 for subsequent experiments. […] Inhibitors were set up in a five-fold dilution series in RPMI 1640 medium supplemented with 10% […] of inhibitor were added to the wells in serial dilution and slides incubated for 72 hours at 37°C with 5% CO2. After 72 hours the medium was removed and replaced with fresh medium containing the same concentrations of inhibitors and incubated for a further 48 hours at 37°C with 5% CO2. At the end of the incubation period, the medium was removed, the slides were washed twice with fresh RPMI 1640 medium supplemented with 10% HIFCS then fixed with 100% methanol and stained with 10% Giemsa's stain for 10 minutes. The percentage of infected macrophages and number of amastigotes per macrophage were determined by light microscopy under oil immersion.

[5] = biological target: human CDK2:CycA (Homo sapiens, UniProt P24941); assay: Mammalian protein kinase assay / counter screen, CDK2:CYCA; assay type: biochemical; conditions: BioFocus SFK48 HTS hits, re-screen
Method: as §1

[6] = re-synthesised Lexicon azapurine hits
[7] = Lexicon azapurine HTS hits, maximum concentration tested 10 µM
[8] = synthesised azapurine derivatives
[9] = BioFocus SFK48 HTS hits, rescreen

Sequence of Leishmania CRK3:CYC6 (Q4Q4U0 entry or part of it): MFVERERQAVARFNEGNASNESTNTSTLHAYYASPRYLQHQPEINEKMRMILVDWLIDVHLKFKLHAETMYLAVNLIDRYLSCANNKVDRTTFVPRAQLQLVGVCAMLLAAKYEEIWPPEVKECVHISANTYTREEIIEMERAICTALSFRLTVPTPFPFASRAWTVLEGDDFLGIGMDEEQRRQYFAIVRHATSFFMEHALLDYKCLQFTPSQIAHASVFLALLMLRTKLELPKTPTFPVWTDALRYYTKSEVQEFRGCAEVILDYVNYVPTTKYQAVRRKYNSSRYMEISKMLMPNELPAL
Sequence of Leishmania CRK3:CYC6 (O96526 entry or part of it): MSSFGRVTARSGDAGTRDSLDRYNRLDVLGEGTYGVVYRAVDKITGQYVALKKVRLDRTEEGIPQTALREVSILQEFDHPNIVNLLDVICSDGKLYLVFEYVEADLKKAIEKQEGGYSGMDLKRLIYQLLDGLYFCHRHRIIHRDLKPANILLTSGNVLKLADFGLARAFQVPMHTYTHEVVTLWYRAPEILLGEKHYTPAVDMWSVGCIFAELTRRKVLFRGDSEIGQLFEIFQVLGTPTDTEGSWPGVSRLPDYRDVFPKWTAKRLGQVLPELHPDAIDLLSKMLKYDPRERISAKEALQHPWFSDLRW

COc1ccc(-n2nnc3c(N4CCCC(O)C4)nc(CC4CCCCC4)nc32)cc1 (racemic) [Compound 5]
IC50 ([1]; Lexicon azapurine HTS hits): 5.3 µM
IC50 [1, 6]: 4.2 µM
IC50 [2]: 9.7 µM
IC50 [3, 7]: 8.6 µM
activity towards the amastigote life cycle stage (in words) [4]: no activity
IC50 ([4]; Lexicon azapurine HTS hits): > 50 µM

COc1ccc(Cn2nnc3c(N4CCCC(O)C4)nc(CC4CCCCC4)nc32)cc1 (racemic) [Compound 19]
IC50 [1, 8]: > 50 µM
activity towards promastigote L. major (in words) [3]: showed a range of activity
IC50 [3, 8]: 5 to 50 µM

COc1ccc(-n2nnc3c(N4CCCC(O)C4)nc(Cc4ccccc4)nc32)cc1 (racemic) [Compound 29]
inhibition of CRK3/CYC6 in vitro (in words) [1]: did not inhibit
IC50 [1, 8]: > 100 µM
activity towards promastigote L. major (in words) [3]: showed a range of activity
inhibition of parasite growth in culture (in words) [3]: inhibited parasite growth in culture
IC50 [3, 8]: 38.7 µM
activity against amastigotes (in words) [4, 8]: Activity observed at 25 μM

OC1CCCN(c2nc(CC3CCCCC3)nc3c2nnn3Cc2ccc(F)cc2)C1 (racemic) [Compound 33]
IC50 [1, 8]: 47.6 µM
IC50 [3, 8]: > 50 µM
IC50 [4, 8]: > 50 µM

COc1ccc(-n2nnc3c(N(C)CCN(C)C4c5ccccc5CC4O)nc(CC4CCCCC4)nc32)cc1 (stereo not drawn) [Compound 1]
IC50 ([1]; Lexicon azapurine HTS hits): 2.6 µM
IC50 [2]: 12.5 µM
IC50 [3, 7]: > 10 µM
IC50 ([4]; Lexicon azapurine HTS hits): > 50 µM

CCCN(c1nc(CC2CCCCC2)nc2c1nnn2-c1ccc(OC)cc1)C1CCCC1N(C)C (stereo not drawn) [Compound 2]
IC50 ([1]; Lexicon azapurine HTS hits): 3.4 µM
IC50 [2]: 5.6 µM
activity towards promastigote L. major (in words) [3]: did not have activity
IC50 [3, 7]: > 10 µM
IC50 ([4]; Lexicon azapurine HTS hits): 38.4 µM

COc1ccc(-n2nnc3c(NCC(C)O)nc(CC4CCCCC4)nc32)cc1 (stereo not drawn) [Compound 3]
IC50 ([1]; Lexicon azapurine HTS hits): 4.4 µM
IC50 [1, 6]: 24.2 µM
IC50 [2]: 21.9 µM
IC50 [3, 7]: > 10 µM
IC50 ([4]; Lexicon azapurine HTS hits): > 50 µM

COc1ccc(-n2nnc3c(N(C)C4COCC4N(C)C)nc(CC4CCCCC4)nc32)cc1 (stereo not drawn) [Compound 4]
IC50 ([1]; Lexicon azapurine HTS hits): 4.4 µM
IC50 [2]: 10.3 µM
IC50 [3, 7]: > 10 µM
IC50 ([4]; Lexicon azapurine HTS hits): > 50 µM

COc1ccc(-n2nnc3c(N4CCCC(CO)C4)nc(CC4CCCCC4)nc32)cc1 (stereo not drawn) [Compound 6]
IC50 ([1]; Lexicon azapurine HTS hits): 6.9 µM
IC50 [1, 6]: 4.4 µM
IC50 [2]: 9.2 µM
IC50 [3, 7]: > 10 µM
IC50 ([4]; Lexicon azapurine HTS hits): > 50 µM

COc1ccc(-n2nnc3c(N(C)C(CN4CCCCC4)c4ccccc4)nc(CC4CCCCC4)nc32)cc1 (stereo not drawn) [Compound 7]
IC50 ([1]; Lexicon azapurine HTS hits): 7.8 µM
IC50 [2]: 19.5 µM

CCC(CC)Nc1nc(CC2CCCCC2)nc2c1nnn2-c1ccc(OC)cc1 [Compound 8]
IC50 ([1]; Lexicon azapurine HTS hits): 8.1 µM
IC50 [2]: 26.9 µM

COc1ccc(-n2nnc3c(NC(C)C)nc(CC4CCCCC4)nc32)cc1 [Compound 9]
IC50 ([1]; Lexicon azapurine HTS hits): 8.8 µM
IC50 [1, 6]: 37.9 µM
IC50 [2]: 19.8 µM

COc1ccc(-n2nnc3c(NC(Cc4ccccc4)Cn4nc(C)cc4C)nc(CC4CCCCC4)nc32)cc1 (stereo not drawn) [Compound 10]
IC50 ([1]; Lexicon azapurine HTS hits): 10.1 µM
IC50 [2]: 7.3 µM

COc1ccc(-n2nnc3c(N4CC(N5CCN(c6ccccn6)CC5)C4)nc(CC4CCCCC4)nc32)cc1 [Compound 11]
IC50 ([1]; Lexicon azapurine HTS hits): 10.3 µM
IC50 [2]: 6.7 µM

COc1ccc(-n2nnc3c(NC(CO)CC(C)C)nc(CC4CCCCC4)nc32)cc1 (stereo not drawn) [Compound 12]
IC50 ([1]; Lexicon azapurine HTS hits): 10.7 µM
IC50 [2]: 4.6 µM

COc1ccc(Cn2nnc3c(NCc4ccccn4)nc(CC4CCCCC4)nc32)cc1 [Compound 17]
IC50 [1, 8]: 39.1 µM
activity towards promastigote L. major (in words) [3]: showed a range of activity
inhibition of parasite growth in culture (in words) [3]: inhibited parasite growth in culture
IC50 [3, 8]: 7.4 µM
IC50 [4, 8]: 5 to 15 µM

COc1ccc(Cn2nnc3c(N4CCOCC4)nc(CC4CCCCC4)nc32)cc1 [Compound 20]
inhibition of CRK3/CYC6 in vitro (in words) [1]: did not inhibit

COc1ccc(-n2nnc3c(O)nc(Cc4ccc(Br)cc4)nc32)cc1 [Compound 26]
IC50 [1, 8]: > 50 µM

COc1ccc(-n2nnc3c(N4CCOCC4)nc(CC4CCCCC4)nc32)cc1 [Compound 27]
IC50 [1, 8]: 30.3 µM
activity towards promastigote L. major (in words) [3]: showed a range of activity
inhibition of parasite growth in culture (in words) [3]: inhibited parasite growth in culture
IC50 [3, 8]: 28.7 µM
IC50 [4, 8]: 15 to 30 µM

COc1ccc(-n2nnc3c(NCCN4CCOCC4)nc(CC4CCCCC4)nc32)cc1 [Compound 28]
inhibition of CRK3/CYC6 in vitro (in words) [1]: did not inhibit
IC50 [1, 8]: > 50 µM
activity towards promastigote L. major (in words) [3]: showed a range of activity
inhibition of parasite growth in culture (in words) [3]: inhibited parasite growth in culture
IC50 [3, 8]: 8.3 µM
IC50 [4, 8]: 5 to 15 µM

COc1ccc(-n2nnc3c(NCCN4CCOCC4)nc(Cc4ccccc4)nc32)cc1 [Compound 30]
IC50 [1, 8]: > 100 µM
activity towards promastigote L. major (in words) [3]: showed a range of activity
inhibition of parasite growth in culture (in words) [3]: inhibited parasite growth in culture
IC50 [3, 8]: 3.8 µM
activity against amastigotes (in words) [4, 8]: Activity observed at 10 μM

COc1ccc(-n2nnc3c(N4CCCC(CO)C4)nc(Cc4ccccc4)nc32)cc1 (stereo not drawn) [Compound 31]
IC50 [1, 8]: > 20 µM
activity towards promastigote L. major (in words) [3]: showed a range of activity
IC50 [3, 8]: 40 µM
activity against amastigotes (in words) [4, 8]: Activity observed at 25 μM

COc1ccc(-n2nnc3c(NCC(C)O)nc(Cc4ccccc4)nc32)cc1 (stereo not drawn) [Compound 32]
IC50 [1, 8]: > 100 µM
IC50 [3, 8]: > 50 µM
IC50 [4, 8]: > 25 µM

ONc1nc(CC2CCCCC2)nc2c1nnn2Cc1ccc(F)cc1 [Compound 35]
IC50 [1, 8]: > 50 µM
IC50 [3, 8]: > 50 µM
IC50 [4, 8]: > 50 µM

NC(c1ccccc1)c1csc(NC(=O)Nc2ccccc2)n1 (stereo not drawn) [Compound 36]
IC50 [1, 9]: 3.5 µM
IC50 ([3]; BioFocus SFK48 HTS hits): 26.8 µM
IC50 [5]: > 20 µM

NC(c1ccccc1)c1csc(NC(=O)Nc2ccccc2Cl)n1 (stereo not drawn) [Compound 37]
IC50 [1, 9]: 4.8 µM
IC50 ([3]; BioFocus SFK48 HTS hits): 27.5 µM
IC50 [5]: > 20 µM

COc1ccc(CC(N)c2csc(NC(=O)Nc3ccccc3Oc3ccccc3)n2)cc1 (stereo not drawn) [Compound 38]
IC50 [1, 9]: 5 µM
IC50 ([3]; BioFocus SFK48 HTS hits): 3.3 µM
IC50 [5]: > 20 µM

COc1ccc(C(N)c2csc(NC(=O)Nc3ccc(C(C)C)cc3)n2)cc1 (stereo not drawn) [Compound 39]
IC50 [1, 9]: 7.5 µM
IC50 ([3]; BioFocus SFK48 HTS hits): 3.8 µM
IC50 [5]: > 20 µM

CC(C)c1ccccc1NC(=O)Nc1nc(C2CCC(=O)N2)cs1 (stereo not drawn) [Compound 40]
IC50 [1, 9]: 7.8 µM
IC50 ([3]; BioFocus SFK48 HTS hits): > 50 µM
IC50 [5]: > 20 µM

Cc1ccccc1NC(=O)Nc1nc(C(N)c2ccccc2Cl)cs1 (stereo not drawn) [Compound 41]
IC50 [1, 9]: 9 µM
IC50 ([3]; BioFocus SFK48 HTS hits): 26.1 µM
IC50 [5]: > 20 µM

NC(c1ccccc1)c1csc(NC(=O)Nc2ccc(OC(F)(F)F)cc2)n1 (stereo not drawn) [Compound 42]
IC50 [1, 9]: 10 µM
IC50 ([3]; BioFocus SFK48 HTS hits): 6.9 µM
IC50 [5]: > 20 µM
